Data from patent publication US11891634B2, “PDE5A destabilizing domains” (The Board of Trustees of the Leland Stanford Junior …, priority 2017, dated 2024).

Tests used:
Type in all cases: cell-based, human
[1] = system: HCT 116 cells transduced with the PDE5A DD derived GFP constructs; assay: Response to Vardenafil, GFP expression by FACS in HCT116; details: for MFI / Stabilization ratio with Vardenafil: 48 hours, HCT116; for Basal: Table 15, MFI with DMSO / parental HCT116, Vardenafil experiment
Procedure: (§1) Mutations were created in PDE5A (535-860) catalytic domain using site directed mutagenesis and the mutants were cloned as AcGFP fusion into pELNS vector carrying mCherry marker and packaged in lentiviral vectors. HCT116 cells were transduced with the constructs and stable integrants were selected by cell sorting using mCherry marker. Cells were treated with vehicle (dimethyl sulfoxide, DMSO) or 10 μM Vardenafil (VDF) for 48 hours. Following the treatment, cells were analyzed for GFP expression using FACS. Basal expression was calculated as the ratio of GFP signal in the absence of ligand for a given cell line to auto fluorescence of parental HCT-116 cells. Stabilization ratio was calculated as the ratio of the GFP signal observed in the presence of stabilizing ligand to the signal from the same cell line in the absence of ligand.
HCT 116 cells transduced with the PDE5A DD derived GFP constructs were also tested with increasing doses of Vardenafil. The HCT116 cells were incubated for 48 hours with Vardenafil starting at a dose of 0.002 μM to 30 μM. The GFP intensity of the Vardenafil treated samples was compared to the parental untransduced HCT116 and DMSO treated cells for each construct. The mean fluorescence intensity was calculated for each sample and used to calculate the stabilization ratios as well as the basal expression for each construct. The GFP expression was measured using flow cytometry and the mean fluorescence intensity (MFI) was calculated for each sample. The stabilization ratios are shown in Table 13 and Table 14 and the basal expression is show in Table 15.

[2] = system: HCT 116 cells transduced with the PDE5A DD derived GFP constructs; assay: Response to Tadalafil, GFP expression by FACS in HCT116; details: for MFI / Stabilization ratio with Tadalafil: 48 hours, HCT116; for Basal expression: Table 21, MFI with DMSO / parental HCT116, Tadalafil experiment
Procedure: as §1, with “PDE5AN (#3) was” for “Mutations were created in PDE5A (535-860) catalytic domain using site directed mutagenesis and the mutants were”, “construct” for “constructs”, “varying doses of Tadalafil (TDF)” for “10 μM Vardenafil (VDF)”, “hrs with doses ranging from 0.01 μM to 100 μM.” for “hours.”
HCT 116 cells transduced with the PDE5A DD derived GFP constructs were also tested with increasing doses of Tadalafil. The HCT116 cells were incubated for 48 hours with Tadalafil starting at dose 0.01 μM to 100 μM. The GFP intensity of the Tadalafil treated samples was compared to the parental untransduced HCT116 and DMSO treated cells for each construct. The mean fluorescence intensity was calculated for each sample and used to calculate the stabilization ratios as well as the basal expression for each construct. The stabilization ratios are shown in Table 19 and Table 20 and the basal expression is show in Table 21.

[3] = system: HCT116 cells transduced with the constructs; assay: Response to Sildenafil, GFP expression by flow cytometry in HCT116; details: for MFI / Stabilization ratio with Sildenafil: 48 hours, HCT116; for Basal expression: Table 26, MFI with DMSO / parental HCT116, Sildenafil experiment
Procedure: Similar experiments were performed in HCT116 cells using sildenafil. The above-mentioned DDs were cloned as AcGFP fusion into pELNS vector carrying mCherry marker and packaged in lentiviral vectors. HCT116 cells were transduced with the constructs and stable integrants were selected by cell sorting using mCherry marker. Cells were treated with sildenafil at the following μM concentrations: 0.01, 0.02, 0.05, 0.14, 0.41, 1.23, 3.7, 11.11, 33.33, and 100 for a duration of 48 hours. The fluorescence was analyzed by flow cytometry and the mean fluorescence intensity was calculated for all samples. […] The stabilization ratios are shown in Table 24 and Table 25 and the basal expression is show in Table 26.

PDE5AC (#25): AcGFP fused to C-terminal DD 535-860 of PDE5A (Q541R, F559L, Q589R, H678R, I824T), SEQ ID NO. 35
MFI ([1]; DMSO (no Vardenafil)): 9555 | Basal [1]: 4.89 | Stabilization ratio with Vardenafil ([1]; Vardenafil 0.002 μM vs DMSO): 1.0 | MFI ([1]; Vardenafil 0.002 μM): 9737 | Stabilization ratio with Vardenafil ([1]; Vardenafil 0.005 μM vs DMSO): 1.0 | MFI ([1]; Vardenafil 0.005 μM): 9694 | Stabilization ratio with Vardenafil ([1]; Vardenafil 0.014 μM vs DMSO): 1.0 | MFI ([1]; Vardenafil 0.014 μM): 9767 | Stabilization ratio with Vardenafil ([1]; Vardenafil 0.041 μM vs DMSO): 1.1 | MFI ([1]; Vardenafil 0.041 μM): 10468 | Stabilization ratio with Vardenafil ([1]; Vardenafil 0.123 μM vs DMSO): 1.4 | MFI ([1]; Vardenafil 0.123 μM): 13348 | Stabilization ratio with Vardenafil ([1]; Vardenafil 0.370 μM vs DMSO): 2.1 | MFI ([1]; Vardenafil 0.370 μM): 20522 | Stabilization ratio with Vardenafil ([1]; Vardenafil 1.111 μM vs DMSO): 4.1 | MFI ([1]; Vardenafil 1.111 μM): 38958 | Stabilization ratio with Vardenafil ([1]; Vardenafil 3.333 μM vs DMSO): 6.9 | MFI ([1]; Vardenafil 3.333 μM): 66337 | Stabilization ratio with Vardenafil ([1]; Vardenafil 10 μM vs DMSO): 9.9 | MFI ([1]; Vardenafil 10 μM): 94642 | Stabilization ratio with Vardenafil ([1]; Vardenafil 30 μM vs DMSO): 12.7 | MFI ([1]; Vardenafil 30 μM): 120927 | MFI ([2]; DMSO (no Tadalafil)): 9297 | Basal expression [2]: 7.26 | Stabilization ratio with Tadalafil ([2]; Tadalafil 0.01 μM vs DMSO): 1.0 | MFI ([2]; Tadalafil 0.01 μM): 9233 | Stabilization ratio with Tadalafil ([2]; Tadalafil 0.02 μM vs DMSO): 1.0 | MFI ([2]; Tadalafil 0.02 μM): 8860 | Stabilization ratio with Tadalafil ([2]; Tadalafil 0.05 μM vs DMSO): 1.0 | MFI ([2]; Tadalafil 0.05 μM): 9404 | Stabilization ratio with Tadalafil ([2]; Tadalafil 0.14 μM vs DMSO): 1.0 | MFI ([2]; Tadalafil 0.14 μM): 9478 | Stabilization ratio with Tadalafil ([2]; Tadalafil 0.41 μM vs DMSO): 1.1 | MFI ([2]; Tadalafil 0.41 μM): 9858 | Stabilization ratio with Tadalafil ([2]; Tadalafil 1.23 μM vs DMSO): 1.3 | MFI ([2]; Tadalafil 1.23 μM): 12432 | Stabilization ratio with Tadalafil ([2]; Tadalafil 3.7 μM vs DMSO): 2.1 | MFI ([2]; Tadalafil 3.7 μM): 19294 | Stabilization ratio with Tadalafil ([2]; Tadalafil 11.11 μM vs DMSO): 3.4 | MFI ([2]; Tadalafil 11.11 μM): 31763 | Stabilization ratio with Tadalafil ([2]; Tadalafil 33.33 μM vs DMSO): 5.8 | MFI ([2]; Tadalafil 33.33 μM): 54151 | Stabilization ratio with Tadalafil ([2]; Tadalafil 100 μM vs DMSO): 7.6 | Stabilization ratio with Tadalafil ([2]; Tadalafil 100 μM vs DMSO, listed as PDE5AN (#25)): highest stabilization ratio | MFI ([2]; Tadalafil 100 μM): 70389 | MFI ([3]; DMSO (no Sildenafil)): 10217 | Stabilization ratio with Sildenafil ([3]; Sildenafil 0.01 μM vs DMSO): 1.0 | MFI ([3]; Sildenafil 0.01 μM): 10169 | Stabilization ratio with Sildenafil ([3]; Sildenafil 0.02 μM vs DMSO): 0.9 | MFI ([3]; Sildenafil 0.02 μM): 9354 | Stabilization ratio with Sildenafil ([3]; Sildenafil 0.05 μM vs DMSO): 1.0 | MFI ([3]; Sildenafil 0.05 μM): 10120 | Stabilization ratio with Sildenafil ([3]; Sildenafil 0.14 μM vs DMSO): 1.0 | MFI ([3]; Sildenafil 0.14 μM): 10128 | Stabilization ratio with Sildenafil ([3]; Sildenafil 0.41 μM vs DMSO): 1.0 | MFI ([3]; Sildenafil 0.41 μM): 10207 | Stabilization ratio with Sildenafil ([3]; Sildenafil 1.23 μM vs DMSO): 1.2 | MFI ([3]; Sildenafil 1.23 μM): 12328 | Stabilization ratio with Sildenafil ([3]; Sildenafil 3.70 μM vs DMSO): 1.7 | MFI ([3]; Sildenafil 3.70 μM): 17466 | Stabilization ratio with Sildenafil ([3]; Sildenafil 11.11 μM vs DMSO): 2.6 | MFI ([3]; Sildenafil 11.11 μM): 26947 | Stabilization ratio with Sildenafil ([3]; Sildenafil 33.33 μM vs DMSO): 4.6 | MFI ([3]; Sildenafil 33.33 μM): 46897 | Stabilization ratio with Sildenafil ([3]; Sildenafil 100.00 μM vs DMSO): 5.1 | MFI ([3]; Sildenafil 100.00 μM): 51774 | Basal expression [3]: 7.9

PDE5AC (#43): AcGFP fused to C-terminal DD 535-860 of PDE5A (Q589R, N609H, Y676N, A762S), SEQ ID NO. 29
MFI ([1]; DMSO (no Vardenafil)): 12047 | Basal (DMSO/Parental) ([1]; Table 10, GFP signal without ligand / auto fluorescence of parental HCT-116): 8.7 | Basal [1]: 6.17 | Stabilization ratio with Vardenafil ([1]; Vardenafil 0.002 μM vs DMSO): 1.1 | MFI ([1]; Vardenafil 0.002 μM): 13329 | MFI ([1]; Vardenafil 0.005 μM): 17702 | Stabilization ratio with Vardenafil ([1]; Vardenafil 0.014 μM vs DMSO): 2.8 | MFI ([1]; Vardenafil 0.014 μM): 33483 | Stabilization ratio with Vardenafil ([1]; Vardenafil 0.041 μM vs DMSO): 4.6 | MFI ([1]; Vardenafil 0.041 μM): 55300 | Stabilization ratio with Vardenafil ([1]; Vardenafil 0.123 μM vs DMSO): 5.8 | MFI ([1]; Vardenafil 0.123 μM): 70385 | Stabilization ratio with Vardenafil ([1]; Vardenafil 0.370 μM vs DMSO): 6.5 | MFI ([1]; Vardenafil 0.370 μM): 78215 | Stabilization ratio with Vardenafil ([1]; Vardenafil 1.111 μM vs DMSO): 6.9 | MFI ([1]; Vardenafil 1.111 μM): 83052 | Stabilization ratio with Vardenafil ([1]; Vardenafil 3.333 μM vs DMSO): 7.4 | MFI ([1]; Vardenafil 3.333 μM): 88707 | Stabilization ratio with Vardenafil ([1]; Vardenafil 10 μM vs DMSO): 7.1 | MFI ([1]; Vardenafil 10 μM): 85867 | Stabilization ratio with Vardenafil ([1]; Vardenafil 30 μM vs DMSO): 7.2 | MFI ([1]; Vardenafil 30 μM): 86318 | MFI ([2]; DMSO (no Tadalafil)): 10998 | Basal expression [2]: 8.59 | Stabilization ratio with Tadalafil ([2]; Tadalafil 0.01 μM vs DMSO): 1.0 | MFI ([2]; Tadalafil 0.01 μM): 11444 | Stabilization ratio with Tadalafil ([2]; Tadalafil 0.02 μM vs DMSO): 1.0 | MFI ([2]; Tadalafil 0.02 μM): 11479 | Stabilization ratio with Tadalafil ([2]; Tadalafil 0.05 μM vs DMSO): 1.1 | MFI ([2]; Tadalafil 0.05 μM): 11764 | Stabilization ratio with Tadalafil ([2]; Tadalafil 0.14 μM vs DMSO): 1.2 | MFI ([2]; Tadalafil 0.14 μM): 13429 | Stabilization ratio with Tadalafil ([2]; Tadalafil 0.41 μM vs DMSO): 1.7 | MFI ([2]; Tadalafil 0.41 μM): 18940 | Stabilization ratio with Tadalafil ([2]; Tadalafil 1.23 μM vs DMSO): 2.9 | MFI ([2]; Tadalafil 1.23 μM): 32204 | Stabilization ratio with Tadalafil ([2]; Tadalafil 3.7 μM vs DMSO): 4.5 | MFI ([2]; Tadalafil 3.7 μM): 49646 | Stabilization ratio with Tadalafil ([2]; Tadalafil 11.11 μM vs DMSO): 5.8 | MFI ([2]; Tadalafil 11.11 μM): 64186 | Stabilization ratio with Tadalafil ([2]; Tadalafil 33.33 μM vs DMSO): 6.8 | MFI ([2]; Tadalafil 33.33 μM): 74446 | Stabilization ratio with Tadalafil ([2]; Tadalafil 100 μM vs DMSO): 6.9 | MFI ([2]; Tadalafil 100 μM): 76281 | MFI ([3]; DMSO (no Sildenafil)): 11147 | Stabilization ratio with Sildenafil ([3]; Sildenafil 0.01 μM vs DMSO): 1.1 | MFI ([3]; Sildenafil 0.01 μM): 11962 | Stabilization ratio with Sildenafil ([3]; Sildenafil 0.02 μM vs DMSO): 1.1 | MFI ([3]; Sildenafil 0.02 μM): 11940 | Stabilization ratio with Sildenafil ([3]; Sildenafil 0.05 μM vs DMSO): 1.4 | MFI ([3]; Sildenafil 0.05 μM): 15203 | MFI ([3]; Sildenafil 0.14 μM): 24319 | Stabilization ratio with Sildenafil ([3]; Sildenafil 0.41 μM vs DMSO): 3.6 | MFI ([3]; Sildenafil 0.41 μM): 40470 | Stabilization ratio with Sildenafil ([3]; Sildenafil 1.23 μM vs DMSO): 5.2 | MFI ([3]; Sildenafil 1.23 μM): 57723 | Stabilization ratio with Sildenafil ([3]; Sildenafil 3.70 μM vs DMSO): 6.6 | MFI ([3]; Sildenafil 3.70 μM): 73400 | Stabilization ratio with Sildenafil ([3]; Sildenafil 11.11 μM vs DMSO): 6.9 | MFI ([3]; Sildenafil 11.11 μM): 76900 | Stabilization ratio with Sildenafil ([3]; Sildenafil 33.33 μM vs DMSO): 8.5 | MFI ([3]; Sildenafil 33.33 μM): 94863 | Stabilization ratio with Sildenafil ([3]; Sildenafil 100.00 μM vs DMSO): 5.1 | MFI ([3]; Sildenafil 100.00 μM): 56552 | Basal expression [3]: 8.7
